Experimental data from publication PMC12101129, “An optimized CYP3A4-activatable fluorogenic sensor for in situ functional imaging and multi-dimensional inhibitor assessment” (Chemical Science, 2025).
Read-outs that look alike come from different tables or passages of the source. Each block holds one compound with its values, some of them ahead of it.

Columns and labels:
[1] = Phase II metabolic stability in HLMs; format: in vitro ADME; settings: human, liver microsomes, read-out: phase II metabolic stability t1/2
[2] = molecular target: T1, NCN 4-hydroxylation in HLMs (Homo sapiens, UniProt P08684); test: Chemical inhibition assays of NCN 4-hydroxylation in HLMs; format: biochemical
T1 construct: tissue Bioreclamation IVT lot No. X008067; host or cells: pooled human liver microsomes from 50 donors

[3] = Effect of pH on fluorescence response of HNCN; format: physicochemical
[4] = In vivo inhibitory effect of ketoconazole on NCN pharmacokinetics; settings: rats; for AUC(0-inf) / Cmax / half-life: rat, plasma, po, 20 mg/kg, NCN 20 mg/kg i.g.
Procedure: Twelve rats were randomly divided into two groups (CMC-Na + NCN group, […]
ketoconazole + NCN group).
50 mg/kg, respectively. Firstly, blank blood samples were collected. Then, ketoconazole or CMC-Na (control group) was administered orally. After 30 min, NCN was administered orally and blood samples were collected at the following time points […]
5-fold volume of acetonitrile.
1.21. Statistical analysis
All data are expressed as the mean ± standard deviation. The Km, Vmax, and IC50 values were determined via non-linear regression analysis using GraphPad Prism software. All statistical analyses were carried out using GraphPad Prism software (GraphPad Prism 8.0), and Origin (2025).

Hep3B cells [5] = test: CCK-8 cytotoxicity assay; format: cell-based
human P-glycoprotein = molecular target: T2, human P-glycoprotein (Homo sapiens, UniProt P08183); test: P-gp transporter assay in MDR1-MDCK cells with or without verapamil; format: in vitro ADME; settings: for intracellular level in the presence of verapamil: MDR1-MDCK cells, with versus without verapamil
T2 construct: expressed in transfected cells; host or cells: MDR1-MDCK
Procedure: 1.10. P-gp transporter assay
To test whether NCN is pumped extracellularly by P-gp, MDR1-MDCK cells (a transfected cell line overexpressing human P-glycoprotein) were seeded in 96-well plates supplemented with DMEM media with 10% FBS. Then, verapamil (a potent P-gp inhibitor, 100 μL) was added to 96-well plates and cultured for 15 min. After that, the cells were treated with NCN/Rhodamine 123 (100 μL) for 2 h. The cells were collected and washed with PBS, and lysed by 200 µL ice-cold acetonitrile. Next, the cell supernatant was collected by centrifugation at 20,000 g, 4 °C for 30 min. The content of NCN in the cells was determined. […]

NCM460 cells = test: Cell-membrane permeability assay in NCM460 cells; format: in vitro ADME
CYP3A4 [6] = molecular target: T3, CYP3A4 (Homo sapiens, UniProt P08684); set-up: endogenous in cells; host or cells: Hep3B; settings: cited from earlier work; for Km: CYP3A4, previously reported probe
Hep3B cells [7] = test: Cell-membrane permeability assay in Hep3B cells; format: in vitro ADME; settings: for Cell-membrane penetration: 20 μM, 1 h
Procedure: 1.9. Cell-membrane permeability assay
Hep3B cells were cultured with the DMEM media supplemented with 10% fetal bovine serum (FBS) in a humidified culture chamber at 37 °C with 95% air and 5%
CO2. The cells were trypsinized and resuspended with the DMEM basal medium at a […]
200 μL cell suspension was incubated with NCN (20 μM) at 37 °C for 1 h. Then, the cells were centrifuged (1000 rpm, 3 min), resuspended in DMEM media, and centrifuged again. Next, the cells were lysed with ice-cold methanol (200 μL) and centrifuged (20000 g, 30 min, 4 °C). The content of NCN in the supernatant was determined. […]

[8] = Oral bioavailability of NCN (pharmacokinetics); format: in vivo, SD rats; settings: Sprague-Dawley, rat, plasma, rats; for AUC(0-inf) / Cmax / Tmax / half-life: n = 5
Procedure: precipitate the protein. After centrifugation again, the supernatant was determined to
quantify the levels of HNCN.
1.17. Oral bioavailability of NCN
intravenous injection NCN group).
h, and 24 h, respectively.
8 h, 12 h, and 24 h, respectively. […]

[9] = tested on: human liver microsomes (HLMs); test: Oxidative metabolism of candidate substrates in HLMs (fluorescent product formation); settings: for fluorescence activation following oxidative metabolism: 30 min
[10] = Bio-safety (tolerability) assessment of NCN in healthy mice; format: in vivo
Procedure: 1.15. Bio-safety assessment of NCN in healthy mice
Sixteen C57BL/6J mice (8 males and 8 females, 6 weeks) were randomly assigned into two groups (4 males and 4 females). All mice were subjected to adaptive feeding for 7 d before the experiment. NCN was dissolved in 0.5% CMC-Na, and mice were orally administered NCN (100 mg/kg)/0.5% CMC-Na continuously for 14 d. The mice were weighed every day, and their status was observed. After 14 d, blood and tissues from all mice were obtained for bio-safety assessment. Serum ALT, AST, TP, UREA, CREA, TG, Na+, and K+ levels were tested by using a fully automated serum biochemistry analysis (Thermo, USA). Mice organs were weighed and the organ index was calculated, and hematoxylin and eosin (H&E) stains were provided by Shanghai Ruibaohe Biotechnology Co., Ltd. […]

[11] = tested on: human recombinant cytochrome P450 enzymes; test: P450 reaction phenotyping assay; format: biochemical; settings: NCN, panel of human P450 enzymes including CYP3A5
Procedure: (§1) 1.6. P450 reaction phenotyping and chemical inhibition assays
(§2) P450 reaction phenotyping analysis of NCN was determined using a panel of human recombinant cytochrome P450 enzymes, while the inhibitory effects of CYP specific inhibitors on NCN 4-hydroxylation in HLMs were assessed. The final concentration of each human recombinant CYP enzyme in the incubation system was 5 nM. Briefly, each sample was co-incubated with NCN at 37 °C for 30 min, the formation rate of HNCN was determined to assess the metabolic specificity of NCN.
(§3) Gaussian program conducted a GMMX conformational analysis using a DFT/B3LYP/6-31G(d) pre-optimized 3D geometry. The resulting GMMX conformers were optimized at B3LYP/6-31G(d) level. Moreover, all conformers were real minima, as no imaginary vibrational frequencies were found. The energy ranking was performed to find the minimum energy conformer. The minima conformer was optimized at B3LYP /6-311G(d,p) level. The molecular orbital energy levels and electrostatic potential (ESP) were calculated at the DFT/B3LYP/6-311G(d,p) level.
(§4) Frontier orbital and ESP were depicted by Multiwfn (Lu and Chen 2011) and VMD […]
(§5) 1.8. Enzyme kinetic analysis
(§6) The kinetic parameters of NCN 4-hydroxylation in HLMs were determined by performing a set of hydroxylation kinetic assays. Kinetic parameters (K m and Vmax) for NCN 4-hydroxylation were fitted by the following equation (a): […]

[12] = molecular target: T4, human liver microsomes (HLMs) (Homo sapiens, UniProt P08684); test: Enzyme kinetic analysis of NCN 4-hydroxylation in HLMs; format: biochemical; settings: Vmax/Km, enzyme source HLMs
T4 construct: tissue Bioreclamation IVT lot No. X008067; host or cells: pooled human liver microsomes from 50 donors
Procedure: as §1, §2, §3, §4, §5, §6

[13] = tested on: human liver microsomes (HLMs)
CYP3A4 [14] = molecular target: T3, CYP3A4; test: Fluorescence response of NCN to CYP3A4 (NCN 4-hydroxylation); format: biochemical; set-up: purchased Cypex
[15] = KCZ 50 mg kg^−1 versus control, after oral NCN

T3 sequence (P08684 whole entry): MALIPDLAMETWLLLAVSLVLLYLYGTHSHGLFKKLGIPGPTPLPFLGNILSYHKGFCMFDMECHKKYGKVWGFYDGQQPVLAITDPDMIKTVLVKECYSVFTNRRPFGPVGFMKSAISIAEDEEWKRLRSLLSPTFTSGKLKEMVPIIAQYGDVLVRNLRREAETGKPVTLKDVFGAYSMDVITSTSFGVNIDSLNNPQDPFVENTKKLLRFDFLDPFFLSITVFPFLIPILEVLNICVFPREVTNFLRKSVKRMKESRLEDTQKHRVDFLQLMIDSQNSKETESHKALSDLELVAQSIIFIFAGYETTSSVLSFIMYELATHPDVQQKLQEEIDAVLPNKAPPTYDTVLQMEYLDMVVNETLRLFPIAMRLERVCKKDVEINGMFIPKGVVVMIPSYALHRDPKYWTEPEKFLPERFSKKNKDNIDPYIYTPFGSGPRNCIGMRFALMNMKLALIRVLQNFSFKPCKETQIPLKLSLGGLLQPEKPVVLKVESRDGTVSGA
T2 sequence (P08183 whole entry): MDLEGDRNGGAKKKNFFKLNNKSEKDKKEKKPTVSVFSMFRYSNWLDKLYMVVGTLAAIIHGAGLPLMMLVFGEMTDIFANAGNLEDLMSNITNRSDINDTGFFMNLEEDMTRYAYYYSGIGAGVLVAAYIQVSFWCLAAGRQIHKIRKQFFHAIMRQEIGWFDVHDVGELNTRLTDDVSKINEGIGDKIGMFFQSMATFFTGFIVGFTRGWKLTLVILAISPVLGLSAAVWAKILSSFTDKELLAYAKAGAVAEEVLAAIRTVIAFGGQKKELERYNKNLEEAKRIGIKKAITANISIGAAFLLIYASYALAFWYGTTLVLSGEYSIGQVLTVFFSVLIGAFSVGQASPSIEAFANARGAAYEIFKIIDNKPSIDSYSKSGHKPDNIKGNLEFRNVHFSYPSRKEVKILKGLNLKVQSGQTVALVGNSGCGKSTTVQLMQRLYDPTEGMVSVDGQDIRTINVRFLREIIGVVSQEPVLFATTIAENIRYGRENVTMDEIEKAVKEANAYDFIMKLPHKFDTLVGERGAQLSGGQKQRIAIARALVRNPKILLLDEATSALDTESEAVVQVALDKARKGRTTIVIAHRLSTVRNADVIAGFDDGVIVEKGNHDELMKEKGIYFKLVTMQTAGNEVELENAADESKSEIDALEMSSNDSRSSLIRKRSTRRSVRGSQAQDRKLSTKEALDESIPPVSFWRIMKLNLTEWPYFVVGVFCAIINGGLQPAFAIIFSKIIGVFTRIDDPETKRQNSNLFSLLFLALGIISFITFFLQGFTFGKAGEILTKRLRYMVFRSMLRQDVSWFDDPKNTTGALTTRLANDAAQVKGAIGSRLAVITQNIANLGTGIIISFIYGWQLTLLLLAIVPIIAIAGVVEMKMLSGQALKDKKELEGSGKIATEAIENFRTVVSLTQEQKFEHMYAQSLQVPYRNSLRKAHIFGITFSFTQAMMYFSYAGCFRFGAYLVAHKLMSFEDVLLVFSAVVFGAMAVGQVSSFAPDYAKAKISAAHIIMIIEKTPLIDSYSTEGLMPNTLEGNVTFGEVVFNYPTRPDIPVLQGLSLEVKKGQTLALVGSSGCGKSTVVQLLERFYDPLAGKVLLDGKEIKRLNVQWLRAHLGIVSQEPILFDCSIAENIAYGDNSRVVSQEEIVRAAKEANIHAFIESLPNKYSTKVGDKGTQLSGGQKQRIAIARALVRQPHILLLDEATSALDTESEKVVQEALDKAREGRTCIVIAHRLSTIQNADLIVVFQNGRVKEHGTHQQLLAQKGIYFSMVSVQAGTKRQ
T1 sequence (P08684 whole entry): as the sequence (P08684 whole entry) above
T4 sequence (P08684 whole entry): as above

Compound: O=c1ccc2ccc(O)cc2o1 [7-hydroxycoumarin, reference compound]
half-life [1]: 0.287 h

Compound: Nn1nnc2ccccc21 [ABT, 1-aminobenzotriazole]
inhibition of NCN 4-hydroxylation [2]: completely blocking

Compound: Cc1ccc(-c2c(-c3nn(C)c4ncnc(N5CC[C@H](N6CCCCC6)C5)c34)cnn2C)cc1 [CYP3cide]
inhibition of NCN 4-hydroxylation [2]: completely blocking

Compound: O=C1c2cccc3cccc(c23)C(=O)N1CC1CC1 [Probe 5, N-cyclopropylmethyl-1,8-naphthalimide]
Cell-membrane penetration (NCM460 cells): 23.76% | enhancement in cell-membrane permeability compared to NEN (NCM460 cells): 23.9 fold | AUC(0-inf) ([4]; control group (CMC-Na)): 1520 ng·h/mL | Cmax ([4]; control group (CMC-Na)): 207 ng/mL | half-life ([4]; control group (CMC-Na)): 1.47 h | AUC(0-inf) ([4]; with KCZ 50 mg kg^−1 i.g.): 5840 ng·h/mL | Cmax ([4]; with KCZ 50 mg kg^−1 i.g.): 674 ng/mL | half-life ([4]; with KCZ 50 mg kg^−1 i.g.): 2.3 h | increase of AUC0-inf by KCZ ([4]; KCZ 50 mg kg^−1 versus control): 3.85 fold | increase of Cmax by KCZ ([4]; KCZ 50 mg kg^−1 versus control): 3.26 fold | AUC(0-inf) ([8]; iv, i.v. 2 mg/kg): 858 ± 120 ng·h/mL | Cmax ([8]; iv, i.v. 2 mg/kg): 1860 ± 477 ng/mL | Tmax ([8]; iv, i.v. 2 mg/kg): 0.083 h | half-life ([8]; iv, i.v. 2 mg/kg): 2.59 ± 0.33 h | bioavailability ([8]; po, 20 mg/kg i.g. versus 2 mg/kg i.v.): 12.9% | AUC(0-inf) ([8]; po, i.g. 20 mg/kg): 1110 ± 208 ng·h/mL | Cmax ([8]; po, i.g. 20 mg/kg): 275 ± 65 ng/mL | Tmax ([8]; po, i.g. 20 mg/kg): 2 ± 0.71 h | half-life ([8]; po, i.g. 20 mg/kg): 1.79 ± 0.41 h | cytotoxicity (Hep3B cells [5]): minimal cytotoxicity | fluorescence activation following oxidative metabolism [9]: noticeable fluorescence activation | enhancement in cell-membrane permeability compared to NEN (Hep3B cells [7]): 13.7 fold | Cell-membrane penetration (Hep3B cells [7]): 31.45% | toxicity, mortality, morbidity signs ([10]; oral 100 mg kg^−1, 14 consecutive days): no toxicity, mortality, or morbidity signs were observed | histopathological examination of vital organs ([10]; oral 100 mg kg^−1, 14 days): no evidence of lesions or inflammation | serum liver, kidney function and other indicators ([10]; oral 100 mg kg^−1, 14 days): within normal ranges | visceral organ appearance ([10]; oral 100 mg kg^−1, 14 days): normal in color, size, and shape | isozyme specificity [11]: only CYP3A4 could effectively trigger discernible fluorescence enhancement | intracellular level in the presence of verapamil (human P-glycoprotein): unchanged | P-gp substrate (human P-glycoprotein; listed as NCN): No and non-substrates of P-gp | microsomal CLint [12]: 255 µL/min/mg | metabolites generated [13]: a single oxidative metabolite | Detection limit (CYP3A4 [14]; CYP3A4 concentration, NCN as substrate): 0.03 nM | fluorescence enhancement (CYP3A4 [14]; NCN 10 μM with CYP3A4 2 nM and NADPH, 30 min, around 555 nm): 125 fold

Compound: O=C1c2cccc3cccc(c23)C(=O)N1Cc1ccco1 [Probe 15]
metabolites generated [9]: multiple metabolites | fluorescence activation following oxidative metabolism [9]: noticeable fluorescence activation

Compound: CC(C)c1nc(CN(C)C(=O)N[C@H](C(=O)N[C@@H](Cc2ccccc2)C[C@H](O)[C@H](Cc2ccccc2)NC(=O)OCc2cncs2)C(C)C)cs1 [ritonavir, reference compound]
cytotoxicity (Hep3B cells [5]): minimal cytotoxicity

More lines, main results first:

pH range of stable fluorescence signals [3]: 7.0–11.0 | half-life [1]: 1.36 h | AUC(0-inf) ([4]; control group (CMC-Na)): 961 ng·h/mL | Cmax ([4]; control group (CMC-Na)): 101 ng/mL | half-life ([4]; control group (CMC-Na)): 1.77 h | AUC(0-inf) ([4]; with KCZ 50 mg kg^−1 i.g.): 245 ng·h/mL | Cmax ([4]; with KCZ 50 mg kg^−1 i.g.): 32 ng/mL | half-life ([4]; with KCZ 50 mg kg^−1 i.g.): 2.88 h | decrease of Cmax by KCZ [4, 15]: 3.16 fold | reduction of AUC(0-inf) by KCZ [4, 15]: 3.92 fold | P-gp substrate (human P-glycoprotein): non-substrates of P-gp | intracellular level in the presence of verapamil (human P-glycoprotein): unchanged
Compound: O=C1c2cccc3c(O)ccc(c23)C(=O)N1CC1CC1 [HNCN, N-cyclopropylmethyl-4-hydroxy-1,8-naphthalimide]
cytotoxicity (Hep3B cells [5]): minimal cytotoxicity

Cell-membrane penetration (NCM460 cells): 0.99% | Cell-membrane penetration (Hep3B cells [7]): 2.29% | P-gp substrate (human P-glycoprotein): Yes | intracellular level in the presence of verapamil (human P-glycoprotein): significantly enhanced
Compound: CCN1C(=O)c2cccc3cccc(c23)C1=O [NEN, N-ethyl-1,8-naphthalimide, reference compound]
Km (CYP3A4 [6]; ref Ning et al. 2019): 59.8 µM | Vmax (CYP3A4 [6]; previously reported probe, ref Ning et al. 2019): 2.18 nmol/min/nmol

metabolites generated [13]: multiple metabolites
Compound: O=C1c2cccc3cccc(c23)C(=O)N1CC1CCC1 [Probe 6]
fluorescence activation following oxidative metabolism [9]: noticeable fluorescence activation

Cell-membrane penetration (NCM460 cells): 2.09% | Cell-membrane penetration (Hep3B cells [7]): 4.82% | P-gp substrate (human P-glycoprotein): Yes | intracellular level in the presence of verapamil (human P-glycoprotein): significantly enhanced
Compound: O=C1c2cccc3cccc(c23)C(=O)N1Cc1ccc(F)cc1 [Probe F8, N-(4-fluorobenzyl)-1,8-naphthalimide, reference compound]
Km (CYP3A4 [6]; ref He et al. 2023): 0.36 µM | Detection limit (CYP3A4 [6]; previously reported probe, ref He et al. 2023): 0.1 nM
